Here are results for 21 compounds from patent US20140356325A1, “NOVEL 2'-C-METHYL NUCLEOSIDE DERIVATIVE COMPOUNDS” (Ligand Pharmaceuticals Incorporated, priority 2012, published 2014).

Molecules are shown by their SMILES. Counter-ions that a name gives are not always drawn.

For orientation: melting point means the temperature, or range, at which the solid turns liquid. Turning to `CC(C)COc1nc(N)nc2c1ncn2[C@@H]1O[C@H](CO[P@@]2(=O)OCC[C@@H](c3cccc(Cl)c3)O2)[C@H]2OC(=O)O[C@]21C` [Compound 122, 2(R)-(2-Amino-6-(2-methylpropyloxy)-9(H)-purinyl)-4(R)-(4(S)-(3-chlorophenyl)-2-oxo-1,3,2-dioxaphosphorinan-2(R)-yloxymethyl)-1(R)-methyl-7-oxo-3,6,8-trioxa-cis-bicyclo[3.3.0]octane], the melting point lay within 118 to 122 °C.
For the compound `CCC(CC)COc1nc(N)nc2c1ncn2[C@@H]1O[C@H](CO[P@@]2(=O)OCC[C@@H](c3cccc(Cl)c3)O2)[C@H]2OC(=O)O[C@]21C` [Compound 143, 2(R)-(2-Amino-6-(2-ethylbutyloxy)-9(H)-purinyl)-4(R)-(4(S)-(3-chlorophenyl)-2-oxo-1,3,2-dioxaphosphorinan-2(R)-yloxymethyl)-1(R)-methyl-7-oxo-3,6,8-trioxa-cis-bicyclo[3.3.0]octane], the melting point lay in the range of 72 to 75 °C.
As to `COC(C)(C)CCOc1nc(N)nc2c1ncn2[C@@H]1O[C@H](CO[P@@]2(=O)OCC[C@@H](c3cccc(Cl)c3)O2)[C@H]2OC(=O)O[C@]21C` [Compound 138, 2(R)-(2-Amino-6-(3-methyl-3-methoxybutyloxy)-9 (H)-purinyl)-4(R)-(4(S)-(3-chlorophenyl)-2-oxo-1,3,2-dioxaphosphorinan-2(R)-yloxymethyl)-1(R)-methyl-7-oxo-3,6,8-trioxa-cis-bicyclo[3.3.0]octane], the melting point was in the range of 93 to 96 °C.
To `CCOc1nc(N)nc2c1ncn2[C@@H]1O[C@H](CO[P@@]2(=O)OCC[C@@H](c3cccc(Br)c3)O2)[C@H]2OC(=O)O[C@]21C` [Compound 123, 2(R)-(2-Amino-6-ethoxy-9(H)-purinyl)-4(R)-(4(S)-(3-bromophenyl)-2-oxo-1,3,2-dioxaphosphorinan-2(R)-yloxymethyl)-1(R)-methyl-7-oxo-3,6,8-trioxa-cis-bicyclo[3.3.0]octane] belongs 77 to 80 °C.
For the compound `C[C@@]12OC(=O)O[C@@H]1[C@@H](CO[P@@]1(=O)OCC[C@@H](c3cccc(C#N)c3)O1)O[C@H]2n1cnc2c(O)nc(N)nc21` [Compound 109, 2(R)-(2-Amino-6-hydroxy-9 (H)-purinyl)-4(R)-(4(S)-(3-cyanophenyl)-2-oxo-1,3,2-dioxaphosphorinan-2(R)-yloxymethyl)-1(R)-methyl-7-oxo-3,6,8-trioxa-cis-bicyclo[3.3.0]octane], the melting point lay in the range of 218 to 220 °C.
The figure for `C[C@@]12OC(=O)O[C@@H]1[C@@H](CO[P@@]1(=O)OCC[C@@H](c3cc(F)cc(F)c3)O1)O[C@H]2n1cnc2c(O)nc(N)nc21` [Compound 101, 2(R)-(2-Amino-6-hydroxy-9(H)-purinyl)-4(R)-(4(S)-(3,5-difluorophenyl)-2-oxo-1,3,2-dioxaphosphorinan-2-(R)-yloxymethyl)-1(R)-methyl-7-oxo-3,6,8-trioxa-cis-bicyclo[3.3.0]octane] is 234 to 236 °C; for `CCOc1nc(N)nc2c1ncn2[C@@H]1O[C@H](CO[P@@]2(=O)OCC[C@@H](c3cccc(F)c3)O2)[C@H]2OC(=O)O[C@]21C` [Compound 124, 2(R)-(2-Amino-6-ethoxy-9(H)-purinyl)-4(R)-(4(S)-(3-fluorophenyl)-2-oxo-1,3,2-dioxaphosphorinan-2(R)-yloxymethyl)-1(R)-methyl-7-oxo-3,6,8-trioxa-cis-bicyclo[3.3.0]octane] it is 88 to 90 °C; for `COc1nc(N)nc2c1ncn2[C@@H]1O[C@H](CO[P@@]2(=O)OCC[C@@H](c3cccc(Cl)c3)O2)[C@H]2OC(=O)O[C@]21C` [Compound 119, 2(R)-(2-Amino-6-methoxy-9(H)-purinyl)-4(R)-(4(S)-(3-chlorophenyl)-2-oxo-1,3,2-dioxaphosphorinan-2(R)-yloxymethyl)-1(R)-methyl-7-oxo-3,6,8-trioxa-cis-bicyclo[3.3.0]octane] it is 125 to 130 °C.
Compound `CC(C)CCOc1nc(N)nc2c1ncn2[C@@H]1O[C@H](CO[P@@]2(=O)OCC[C@@H](c3cccc(Cl)c3)O2)[C@H]2OC(=O)O[C@]21C` [Compound 134, 2(R)-(2-Amino-6-(3-methylbutyloxy)-9(H)-purinyl)-4(R)-(4(S)-(3-chlorophenyl)-2-oxo-1,3,2-dioxaphosphorinan-2(R)-yloxymethyl)-1(R)-methyl-7-oxo-3,6,8-trioxa-cis-bicyclo[3.3.0]octane] returned a melting point of 76 to 78 °C.
The figure for `CCOc1nc(N)nc2c1ncn2[C@@H]1O[C@H](CO[P@@]2(=O)OCC[C@@H](c3cccc(Cl)c3)O2)[C@@H](OC(=O)C(C)C)[C@@]1(C)O` (as salt: trifluoroacetate) [Compound 185, 2(R)-(2-Amino-6-ethoxy-9(H)-purinyl)-5(R)-(4(S)-(3-chlorophenyl)-2-oxo-1,3,2-dioxaphosphorinan-2(R)-yloxymethyl)-3(R)-hydroxy-3(R)-methyl-4(R)-isobutyryloxy-tetrahydrofuran] is 162 to 165 °C; for `CC1CC1COc1nc(N)nc2c1ncn2[C@@H]1O[C@H](CO[P@@]2(=O)OCC[C@@H](c3cccc(Cl)c3)O2)[C@H]2OC(=O)O[C@]21C` (stereo partly drawn) [Compound 135, 2(R)-(2-Amino-6-(2-methylcyclopropylmethoxy)-9(H)-purinyl)-4(R)-(4(S)-(3-chlorophenyl)-2-oxo-1,3,2-dioxaphosphorinan-2(R)-yloxymethyl)-1(R)-methyl-7-oxo-3,6,8-trioxa-cis-bicyclo[3.3.0]octane] it is 88 to 90 °C.
To `C[C@@]12OC(=O)O[C@@H]1[C@@H](CO[P@@]1(=O)OCC[C@@H](c3cccc(Cl)c3)O1)O[C@H]2n1cnc2c(O)nc(N)nc21` [Compound 106, 2(R)-(2-Amino-6-hydroxy-9 (H)-purinyl)-4(R)-(4(S)-(3-chlorophenyl)-2-oxo-1,3,2-dioxaphosphorinan-2(R)-yloxymethyl)-1(R)-methyl-7-oxo-3,6,8-trioxa-cis-bicyclo[3.3.0]octane] belongs more than 200 °C; to `CC(C)[C@H](N)C(=O)O[C@@H]1[C@@H](CO[P@@]2(=O)OCC[C@@H](c3cccc(Cl)c3)O2)O[C@@H](n2cnc3c(O)nc(N)nc32)[C@]1(C)O` (as salt: trifluoroacetate) [Compound 118, 2(R)-(2-Amino-6-hydroxy-9 (H)-purinyl)-5(R)-(4(S)-(3-chlorophenyl)-2-oxo-1,3,2-dioxaphosphorinan-2(R)-yloxymethyl)-3(R)-hydroxy-3(R)-methyl-4(R)-L-valinyl-tetrahydrofuran], more than 210 °C.
In turn, `CC(C)Oc1nc(N)nc2c1ncn2[C@@H]1O[C@H](CO[P@@]2(=O)OCC[C@@H](c3cccc(Cl)c3)O2)[C@H]2OC(=O)O[C@]21C` [Compound 151, 2(R)-(2-Amino-6-isopropyloxy-9(H)-purinyl)-4(R)-(4(S)-(3-chlorophenyl)-2-oxo-1,3,2-dioxaphosphorinan-2(R)-yloxymethyl)-1(R)-methyl-7-oxo-3,6,8-trioxa-cis-bicyclo[3.3.0]octane] displayed a melting point of 106 to 110 °C.
`CSCCCOc1nc(N)nc2c1ncn2[C@@H]1O[C@H](CO[P@@]2(=O)OCC[C@@H](c3cccc(Cl)c3)O2)[C@H]2OC(=O)O[C@]21C` [Compound 130, 2(R)-(2-Amino-6-(3-methylthiopropyloxy)-9(H)-purinyl)-4(R)-(4(S)-(3-chlorophenyl)-2-oxo-1,3,2-dioxaphosphorinan-2(R)-yloxymethyl)-1(R)-methyl-7-oxo-3,6,8-trioxa-cis-bicyclo[3.3.0]octane] registered a melting point of 79 to 82 °C.
With `C[C@@]12OC(=O)O[C@@H]1[C@@H](CO[P@@]1(=O)OCC[C@@H](c3cccc(Cl)c3)O1)O[C@H]2n1cnc2c(OCC3CCOCC3)nc(N)nc21` [Compound 129, 2(R)-(2-Amino-6-(4-tetrahydropyranylmethoxy)-9(H)-purinyl)-4(R)-(4(S)-(3-chlorophenyl)-2-oxo-1,3,2-dioxaphosphorinan-2(R)-yloxymethyl)-1(R)-methyl-7-oxo-3,6,8-trioxa-cis-bicyclo[3.3.0]octane], the melting point fell in the range of 105 to 108 °C.
Compound `CCOc1nc(N)nc2c1ncn2[C@@H]1O[C@H](CO[P@@]2(=O)OCC[C@@H](c3cccc(Cl)c3)O2)[C@@H](OC(=O)C2CCCC2)[C@@]1(C)O` [Compound 186, 2(R)-(2-Amino-6-ethoxy-9(H)-purinyl)-5(R)-(4(S)-(3-chlorophenyl)-2-oxo-1,3,2-dioxaphosphorinan-2(R)-yloxymethyl)-3(R)-hydroxy-3(R)-methyl-4(R)-cyclopentylcarboxy-tetrahydrofuran] gave a melting point of 106 to 111 °C.
Compound `CCOc1nc(N)nc2c1ncn2[C@@H]1O[C@H](CO[P@@]2(=O)OCC[C@@H](c3cc(F)cc(F)c3)O2)[C@H]2OC(=O)O[C@]21C` [Compound 126, 2(R)-(2-Amino-6-ethoxy-9(H)-purinyl)-4(R)-(4(S)-(3,5-difluorophenyl)-2-oxo-1,3,2-dioxaphosphorinan-2(R)-yloxymethyl)-1(R)-methyl-7-oxo-3,6,8-trioxa-cis-bicyclo[3.3.0]octane] showed a melting point of 96 to 98 °C.
Regarding `CCOC(COc1nc(N)nc2c1ncn2[C@@H]1O[C@H](CO[P@@]2(=O)OCC[C@@H](c3cccc(Cl)c3)O2)[C@H]2OC(=O)O[C@]21C)OCC` [Compound 149, 2(R)-(2-Amino-6-(2,2-diethoxyethoxy)-9(H)-purinyl)-4(R)-(4(S)-(3-chlorophenyl)-2-oxo-1,3,2-dioxaphosphorinan-2(R)-yloxymethyl)-1(R)-methyl-7-oxo-3,6,8-trioxa-cis-bicyclo[3.3.0]octane], the melting point is 72 to 75 °C.
On to `C[C@@]12OC(=O)O[C@@H]1[C@@H](CO[P@@]1(=O)OCC[C@@H](c3cccc(Cl)c3)O1)O[C@H]2n1cnc2c(OCC3CC4CCC3C4)nc(N)nc21` (stereo partly drawn) [Compound 139, 2(R)-(2-Amino-6-(2-bicyclo[2.2.1]heptanylmethoxy)-9(H)-purinyl)-4(R)-(4(S)-(3-chlorophenyl)-2-oxo-1,3,2-dioxaphosphorinan-2(R)-yloxymethyl)-1(R)-methyl-7-oxo-3,6,8-trioxa-cis-bicyclo[3.3.0]octane], for which the melting point was in the range of 99 to 101 °C.
Take `CCOc1nc(N)nc2c1ncn2[C@@H]1O[C@H](CO[P@@]2(=O)OCC[C@@H](c3ccccc3)O2)[C@H]2OC(=O)O[C@]21C` [Compound 182, 2(R)-(2-Amino-6-ethoxy-9(H)-purinyl)-4(R)-(4(S)-phenyl-2-oxo-1,3,2-dioxaphosphorinan-2(R)-yloxymethyl)-1(R)-methyl-7-oxo-3,6,8-trioxa-cis-bicyclo[3.3.0]octane]: the melting point fell in the range of 105 to 107 °C.
